From patent publication US10189796B2, “[4-(1,3,3-trimethyl-2-oxo-3,4-dihydro-1H-quinoxalin-7-yl)phenoxy]ethyloxy compound or salt thereof” (SANTEN PHARMACEUTICAL CO., LTD., priority 2015, dated 2019) come the findings set out here.

Counter-ions that a name gives are not always drawn.

Test [1] addresses Recombinant human GR (Homo sapiens (Human), UniProt P04150). Put plainly: GR competitive binding assay by fluorescence polarization. The settings on record: 20 μM test compound solution, 10 μL/well; 2 hours; DEX positive control; read-out: GR binding rate (%). The procedure:
In order to evaluate a binding activity of the present compound to GR, a GR receptor competitor assay was carried out by a fluorescence polarization method. In the assay, a GR competitive binding assay kit (manufactured by Invitrogen, cat No. P2816) was used for the assay, and a procedure was carried out according to the protocol attached to the kit. Hereinafter, the specific method will be described.
GR screening buffer: A buffer containing 10 mM of potassium phosphate (pH 7.4), 20 mM of sodium molybdate (Na2MoO4), 0.1 mM of ethylene diamine tetraacetic acid (EDTA), 5 mM of dithiothreitol (DTT), 0.1 mM of stabilizing peptide and 2% of dimethylsulfoxide was prepared.
4×GS1 solution: Fluormone™ GS1, which is a fluorescent glucocorticoid ligand, was diluted with GR screening buffer, whereby a 4 nM solution was prepared.
4×GR solution: Recombinant human GR was diluted with GR screening buffer, whereby a 16 nM solution was prepared.
After a test compound was dissolved in dimethylsulfoxide, the resulting solution was diluted with GR screening buffer, whereby a 20 μM test compound solution was prepared. In addition, DEX was similarly dissolved, whereby a DEX solution with a […] concentration was prepared, and the solution was diluted with GR screening buffer, whereby a 2 mM DEX solution was prepared. DEX was used as positive control.
• 1) The test compound solution was added in an amount of 10 μL into each well of a 384-well plate. • 2) 4×GS1 solution and 4×GR solution were added in an amount of 5 μL into each well, respectively. • 3) GR screening buffer was added in an amount of 10 μL/well into each well in place of the test compound solution, which was made a negative control. • 4) A 2 mM of DEX was added in an amount of 10 μL/well into each well in place of the test compound solution, which was made a positive control. • 5) The plate was incubated in a dark place at room temperature for 2 hours, and fluorescence polarization of each well was measured. (Calculation Equation of GR Binding Ratio)
A GR binding ratio (%) was calculated from the following equation. GR binding ratio (%)=100×{1−(fluorescence polarization of test compound solution−average value of fluorescence polarization of positive control solution)/(average value of fluorescence polarization of negative control solution−average value of fluorescence polarization of positive control solution)}

The test system of test [2] is IL-6 production in human corneal epithelium cell line (HCE-T). Put plainly: IL-6 production inhibitory action evaluation test (LPS stimulation, HTRF). It counts as cell-based. The settings on record: 4 hours; for Emax: 100 μM test compound solution 10 μL/well, DEX treated group = 100, read-out: IL-6 production inhibitory ratio (% DEX); for IC50: IL-6 production inhibition. How it is done:
To evaluate the action of the present compounds as a GR agonist, IL-6 production inhibitory action in human corneal epithelial cell line after LPS stimulation was examined The IL-6 production was measured by using the HTRF method (Cat No. 62IL6PEB manufactured by Cisbio Bioassays, Inc.) according to the attached protocol. The specific method is described below.
LPS solution: After dissolving LPS in PBS(−), the resulting solution was diluted with a culture solution, whereby an LPS solution with a 1 μg/mL concentration was prepared.
After dissolving the test compound in dimethylsulfoxide, the solution was diluted with a 10% FBS-DMEM/Ham's F12 medium, whereby a 100 μM of the test compound solution was prepared. […] In addition, DEX was similarly dissolved, whereby a 100 μM concentration of the DEX solution was prepared, and an IL-6 production inhibitory ratio of DEX was measured, and used for calculation of Efficacy (% DEX).
Used cells: human corneal epithelium cell line (HCE-T) (RIKEN, Institute of Physical and Chemical Research)
The cells continued to subculture according to this method were used for the test. (Test Method and Measurement Method) • 1) The subcultured HCE-T was recovered and the cells were seeded at 2.0×10^4 cells/0.1 mL/well in a 96-well flat bottom culture plate. • 2) After culturing overnight, medium the medium was removed and each 80 μL/well of 10%
FBS-DMEM/Ham's F12 medium was added. • 3) Test compound solution was added with each 10 μL/well. • 4) LPS solution was added with each 10 μL/well. • 5) The sample to which 1% dimethylsulfoxide-containing 10% FBS-DMEM/Ham's F12 medium was added with each 10 μL/well in place of each test compound solution, and 10% FBS-DMEM/Ham's F12 medium was added in place of the LPS solution was made a negative control. • 6) The sample in which 1% dimethylsulfoxide-containing 10% FBS-DMEM/Ham's F12 medium was added with each 10 μL/well in place of each test compound solution was made a positive control. • 7) After completion of 4 hours cultivation, the supernatant was recovered and the amount of IL-6 released in the supernatant was measured by using an HTRF human IL-6 Kit. • 8) The IL-6 production inhibitory ratio was calculated according to the following calculation formula. (Calculation of IL-6 Production Inhibitory Ratio)
The IL-6 production inhibitory ratio (%) was calculated by the following formula. IL-6 production inhibitory ratio (%)=100×{1−(IL-6 produced amount of each test compound solution−average value of IL-6 produced amount of negative control group)/(average value of IL-6 produced amount of positive control group−average value of IL-6 produced amount of negative control group)}(%)
Further, the IL-6 production inhibitory ratio (Efficacy (% DEX)) when the DEX treated group was made 100 was calculated. Efficacy (% DEX)=100×{(average value of IL-6 production inhibitory ratio of each test compound solution)/(average value of IL-6 production inhibitory ratio of DEX treated group)}(%)
In addition, IC50 was calculated according to a conventional method. IDBS XLfit4 was used for the calculation.
Background: TR-FRET usually uses a lanthanide donor and a delayed reading to cut background.

Recombinant human GR, sequence (P04150 whole entry): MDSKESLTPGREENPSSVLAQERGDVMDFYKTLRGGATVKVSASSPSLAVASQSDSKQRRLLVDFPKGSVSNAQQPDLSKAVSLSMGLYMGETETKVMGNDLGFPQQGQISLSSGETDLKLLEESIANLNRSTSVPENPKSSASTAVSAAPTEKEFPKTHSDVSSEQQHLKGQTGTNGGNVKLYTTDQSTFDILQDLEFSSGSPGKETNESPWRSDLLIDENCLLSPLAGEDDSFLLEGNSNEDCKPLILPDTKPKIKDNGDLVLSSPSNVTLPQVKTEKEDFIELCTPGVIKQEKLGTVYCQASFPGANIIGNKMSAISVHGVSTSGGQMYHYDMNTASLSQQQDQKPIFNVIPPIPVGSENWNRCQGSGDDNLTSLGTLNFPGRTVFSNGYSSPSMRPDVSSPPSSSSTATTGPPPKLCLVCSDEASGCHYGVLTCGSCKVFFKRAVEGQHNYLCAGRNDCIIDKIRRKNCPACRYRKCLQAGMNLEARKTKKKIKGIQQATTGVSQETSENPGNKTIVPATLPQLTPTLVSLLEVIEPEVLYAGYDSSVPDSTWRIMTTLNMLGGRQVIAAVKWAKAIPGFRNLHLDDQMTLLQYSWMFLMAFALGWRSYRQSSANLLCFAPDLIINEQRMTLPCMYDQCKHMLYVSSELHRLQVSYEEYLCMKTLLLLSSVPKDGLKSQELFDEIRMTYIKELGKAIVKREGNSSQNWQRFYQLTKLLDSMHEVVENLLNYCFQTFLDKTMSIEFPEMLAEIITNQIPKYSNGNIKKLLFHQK

Regarding `COc1cc(OC[C@H](O)CC#N)ccc1-c1ccc2c(c1COc1cc(F)ccc1C)N(C)C(=O)C(C)(C)N2` [Compound 5-1, (R)-7-[4-(3-cyano-2-hydroxypropyl)oxy-2-methoxyphenyl]-8-(5-fluoro-2-methyl-phenoxymethyl)-1,3,3-trimethyl-3,4-dihydro-1H-quinoxalin-2-one], the inhibition at 10 µM in test [1] turned out to be 88%. Further, in test [2], the Emax is 98% and the IC50 was 14 nM. Taken in the same sequence, the figures for `CCOC(=O)C(O)COc1ccc(-c2ccc3c(c2COc2cc(F)ccc2C)N(C)C(=O)C(C)(C)N3)c(OC)c1` (stereo in doubt) [Compound 1-6, (R)-7-[4-(2-ethoxycarbonyl-2-hydroxyethyl)oxy-2-methoxyphenyl]-8-(5-fluoro-2-methylphenoxymethyl)-1,3,3-trimethyl-3,4-dihydro-1H-quinoxalin-2-one] were 87%, 89% and less than 1 nM. `COc1cc(OCC(O)CO)ccc1-c1ccc2c(c1COc1cc(F)ccc1C)N(C)C(=O)C(C)(C)N2` (centres unmarked) [Compound 4-1, 7-[4-(2,3-dihydroxypropyl)oxy-2-methoxyphenyl]-8-(5-fluoro-2-methylphenoxymethyl)-1,3,3-trimethyl-3,4-dihydro-1H-quinoxalin-2-one]: in test [1], the inhibition at 10 µM was greater than 99%.

For `COc1cc(OCC(O)CC(=O)N2CCCCC2)ccc1-c1ccc2c(c1COc1cc(F)ccc1C)N(C)C(=O)C(C)(C)N2` (centres unmarked) [Compound 10-3, 8-(5-fluoro-2-methylphenoxymethyl)-7-[4-[3-(N-piperidino)carbonyl-2-hydroxy-propyl]oxy-2-methoxyphenyl]-1,3,3-trimethyl-3,4-dihydro-1H-quinoxalin-2-one], the inhibition at 10 µM in test [1] is greater than 99%. On to `CCOC(=O)CC(O)COc1ccc(-c2ccc3c(c2COc2cc(F)ccc2C)N(C)C(=O)C(C)(C)N3)c(OC)c1` (centres unmarked) [Compound 7-1, 7-[4-(3-ethoxycarbonyl-2-hydroxypropyl)oxy-2-methoxyphenyl]-8-(5-fluoro-2-methylphenoxymethyl)-1,3,3-trimethyl-3,4-dihydro-1H-quinoxalin-2-one], for which the inhibition at 10 µM in test [1] is greater than 99%.

`COc1cc(OC[C@H](O)CO)ccc1-c1ccc2c(c1COc1cc(F)ccc1C)N(C)C(=O)C(C)(C)N2` [Compound 4-3, (R)-7-[4-(2,3-dihydroxypropyl)oxy-2-methoxyphenyl]-8-(5-fluoro-2-methylphenoxy-methyl)-1,3,3-trimethyl-3,4-dihydro-1H-quinoxalin-2-one]: in test [1], the inhibition at 10 µM was determined as 88%. As to `COc1cc(OC[C@H](C)OC(=O)CN)ccc1-c1ccc2c(c1COc1cc(F)ccc1C)N(C)C(=O)C(C)(C)N2` [Compound 11-4, (S)-7-[4-(2-aminoacetoxypropyl)oxy-2-methoxyphenyl]-8-(5-fluoro-2-methylphenoxy-methyl)-1,3,3-trimethyl-3,4-dihydro-1H-quinoxalin-2-one hydrochloride], the Emax in test [2] stood at 94%.

Regarding `COc1cc(OCC(O)CC(=O)O)ccc1-c1ccc2c(c1COc1cc(F)ccc1C)N(C)C(=O)C(C)(C)N2` (centres unmarked) [Compound 9-1, 7-[4-(3-Carboxy-2-hydroxypropyl)oxy-2-methoxyphenyl]-8-(5-fluoro-2-methylphenoxymethyl)-1,3,3-trimethyl-3,4-dihydro-1H-quinoxalin-2-one], in test [1], the inhibition at 10 µM is greater than 99%. As for `COc1cc(OC[C@H](C)OC(=O)[C@@H](N)C(C)C)ccc1-c1ccc2c(c1COc1cc(F)ccc1C)N(C)C(=O)C(C)(C)N2` [Compound 11-5, 7-[4-[(2S)-[(2S)-amino-3-methylbutanoyloxy]propyl]oxy-2-methoxyphenyl]-8-(5-fluoro-2-methylphenoxymethyl)-1,3,3-trimethyl-3,4-dihydro-1H-quinoxalin-2-one hydrochloride], the inhibition at 10 µM in test [1] was greater than 99%. Besides, in test [2], the Emax worked out at 94%. As for `COc1cc(OCC(O)CC(=O)OC(C)(C)C)ccc1-c1ccc2c(c1COc1cc(F)ccc1C)N(C)C(=O)C(C)(C)N2` (centres unmarked) [Compound 7-2, 7-[4-(3-t-butoxycarbonyl-2-hydroxypropyl)oxy-2-methoxyphenyl]-8-(5-fluoro-2-methylphenoxymethyl)-1,3,3-trimethyl-3,4-dihydro-1H-quinoxalin-2-one], in test [1], the inhibition at 10 µM was greater than 99%. Further, in test [2], the Emax is greater than 99% and the half-maximal inhibitory concentration (IC50) is 83 nM. Take `COc1cc(OCC(O)CC(=O)N2CCCC2)ccc1-c1ccc2c(c1COc1cc(F)ccc1C)N(C)C(=O)C(C)(C)N2` (centres unmarked) [Compound 10-1, 8-(5-fluoro-2-methylphenoxymethyl)-7-[4-[3-(N-pyrrolidylcarbonyl)-2-hydroxypropyl]oxy-2-methoxyphenyl]-1,3,3-trimethyl-3,4-dihydro-1H-quinoxalin-2-one]: in test [1], the inhibition at 10 µM turned out to be 94%.

With `COc1cc(OC[C@@H](O)CO)ccc1-c1ccc2c(c1COc1cc(F)ccc1C)N(C)C(=O)C(C)(C)N2` [Compound 4-2, (S)-7-[4-(2,3-dihydroxypropyl)oxy-2-methoxyphenyl]-8-(5-fluoro-2-methylphenoxy-methyl)-1,3,3-trimethyl-3,4-dihydro-1H-quinoxalin-2-one], the inhibition at 20 µM (stock) in test [1] was greater than 99%. Turning to `COc1cc(OCCO)ccc1-c1ccc2c(c1COc1cc(F)ccc1C)N(C)C(=O)C(C)(C)N2` [Compound 3-1, 8-(5-fluoro-2-methylphenoxymethyl)-7-[4-(2-hydroxyethyl)oxy-2-methoxyphenyl]-1,3,3-trimethyl-3,4-dihydro-1H-quinoxalin-2-one], the inhibition at 10 µM in test [1] is greater than 99%.

As usually defined, the IC50 is the concentration at which inhibition is half-maximal. Read a low IC50 as greater potency.
